From US8735071B2, “Compositions for promoting epigenetic DNA demethylation and methods of use therefore” (The Johns Hopkins University, priority 2008, dated 2014) come the findings set out here.

Assay [1] relates to Gadd45b expression. The assay is described as follows: Gadd45b expression in cultured primary hippocampal neurons by Q-PCR. It counts as cell-based, mice. To be noted: for K^+-induced Gadd45b expression: pretreated 0.5 hr, then K^+ (50 mM) for 1 hr, BAPTA 50 μM, Nimodipin 10 μM, KN93 or KN92 10 μM, FIG. 5B; for Gadd45b expression: agent alone, K^+ 50 mM, APV 200 μM, bicuculline 50 μM, FIG. 5A, 5C. From the text:
(§1) Dentate gyrus tissue was rapidly micro-dissected from adult WT mice, or with ECT, spatial exploration or running. […] For gene expression analysis, total RNA fraction was immediately isolated after dissection (Qiagen), treated with DNAase and reverse-transcribed into the first-strand cDNA (Invitrogen). Specific primers (listed in Table 1) were used in SYBR-green based quantitative real-time PCR to measure the expression level of target genes with the ΔΔT method (ABI). Most primers were designed to span introns to further prevent genomic DNA amplification during the PCR reaction.
Primary hippocampal neurons were prepared from hippocampi of P0 mice and plated on poly-lysine coated coverslips in Neurobasal-A medium supplemented with B27 (Invitrogen) as previously described (H. Song, C. F. Stevens, F. H. Gage, Nature 417, 39 (2002)). AraC (5 μM) was added to eliminate proliferating cells. One-week old culture was used for all experiments. For pharmacological experiments, cultures were pretreated with the following inhibitors 30 minutes before stimulation with K^+ (50 mM) or glutamate (20 μM) for 1 hr: BAPTA (50 μM), Nimodipin (10 μM), APV (200 μM), bicuculline (50 μM), KN92 or KN93 (10

Assay [2] concerns Arc. To be noted: CPP 10 mg/kg i.p. at 1 hr before ECT; 1 hr after ECT; FIG. 2E. The method, then: (§2) Electroconvulsive treatment (ECT) was administered with pulses consisted of 1.0 s, 100 Hz, 18 mA stimulus of 0.3 ms delivered using the Ugo Basile ECT unit (Model 57800) as previously described (A. J. Cole, Neurochem 55, 1920 (1990)). […] S ham animals were similarly handled in parallel without the current delivery. In some experiments, ±3-(2-carboxypiperazin-4-yl)-propyl-1-phosphonic acid (CPP, 10 mg/kg body weight, i.p.), was injected at 1 hr before ECT. Potential damaging responses after ECT was examined by Western blot and immunostaining of the activated form of caspase (Caspase 3-a; Rabbit; 1:500; Cell Signaling) and phospho-ATM (Ataxia telangiectasia mutated kinase; mouse; Millipore) (3).
as §1

Assay [3] deals with Gadd45b. To be noted: CPP 10 mg/kg i.p. at 1 hr before ECT; 1 hr after ECT; FIG. 2E. The method, then: as §2, §1
Assay [4] relates to adult neural progenitors. The assay is described as follows: Proliferation of adult hippocampal neural progenitors in culture. To be noted: FGF-1 0, 2, 5, 10 and 20 ng/ml versus FGF-2 20 ng/ml; cell number at 4 days in vitro; FIG. 23. The assay is classed as cell-based, rat. The method, then:
Established neural progenitors from adult rat hippocampus were cultured as monolayer as previously described (H. Song, C. F. Stevens, F. H. Gage, Nature 417, 39 (2002).). They were maintained on laminin and polyornithine-coated dishes in DMEM/F12 medium containing N2 supplement, L-glutamine (2 mM) and FGF-2 (20 ng/ml). Cultures were passaged for expansion when reaching 70% confluence. For FGF-1 experiments, early-passage, monolayer adherent cultures were plated at the clonal density in the presence of various concentration of FGF-1 or FGF-2 (PeproTech). At 4 days in vitro, cultures were fixed and cell numbers from each condition were determined by counting from randomly selected fields of 4 different biological replicates.

For `COCCOC(=O)C1=C(C)NC(C)=C(C(=O)OC(C)C)C1c1cccc([N+](=O)[O-])c1` (centres unmarked) [Nimodipin], in assay [1], the “K^+-induced Gadd45b expression” value is reported as “abolished”.

In the case of `O=C(O)C1CN(CCCP(=O)(O)O)CCN1` (racemic) [CPP, ±3-(2-carboxypiperazin-4-yl)-propyl-1-phosphonic acid], the “ECT-induced Arc expression” value in assay [2] is listed as “abolished”. Moreover, the “ECT-induced Gadd45b expression” value in assay [3] is on record as “abolished”. For `N[C@@H](CCCP(=O)(O)O)C(=O)O` [APV], the “glutamate-induced Gadd45b expression” value in assay [1] (APV 200 μM pre-treatment, glutamate 20 μM, FIG. 5C) is recorded as “blocked”. In addition, in assay [1] (glutamate 20 μM), the Gadd45b expression result is recorded as “significantly decreased”.

Turning to “FGF-1: fibroblast growth factor-1 (PeproTech)”, in assay [4], the “mitogenic activity on neural progenitor proliferation in vitro” value is “robust mitogenic activity”. In the case of `COc1ccc(S(=O)(=O)N(CCO)c2ccccc2CN(C)C/C=C/c2ccc(Cl)cc2)cc1` [KN93], the “K^+-induced Gadd45b expression” value in assay [1] was “abolished”. Turning to `O=C(O)CN(CC(=O)O)c1ccccc1OCCOc1ccccc1N(CC(=O)O)CC(=O)O` [BAPTA], the “K^+-induced Gadd45b expression” value in assay [1] is given as “abolished”. On to `N[C@@H](CCC(=O)O)C(=O)O` [glutamate], for which the Gadd45b expression result in assay [1] (glutamate 20 μM) is “induced”. For `COc1ccc(S(=O)(=O)Nc2ccccc2CN(C)C/C=C/c2ccc(Cl)cc2)cc1` [KN92], the “K^+-induced Gadd45b expression” value in assay [1] is recorded as “not”. For the compound `[Cl-].[K+]` [K^+], in assay [1] (glutamate 20 μM), the Gadd45b expression result was “significant increase”.
